Legend:
[1] = target: T1, Muscarinic acetylcholine receptor M1 (Homo sapiens, UniProt P11229); test: ChEBML_1712853
T1 sequence (P11229 whole entry): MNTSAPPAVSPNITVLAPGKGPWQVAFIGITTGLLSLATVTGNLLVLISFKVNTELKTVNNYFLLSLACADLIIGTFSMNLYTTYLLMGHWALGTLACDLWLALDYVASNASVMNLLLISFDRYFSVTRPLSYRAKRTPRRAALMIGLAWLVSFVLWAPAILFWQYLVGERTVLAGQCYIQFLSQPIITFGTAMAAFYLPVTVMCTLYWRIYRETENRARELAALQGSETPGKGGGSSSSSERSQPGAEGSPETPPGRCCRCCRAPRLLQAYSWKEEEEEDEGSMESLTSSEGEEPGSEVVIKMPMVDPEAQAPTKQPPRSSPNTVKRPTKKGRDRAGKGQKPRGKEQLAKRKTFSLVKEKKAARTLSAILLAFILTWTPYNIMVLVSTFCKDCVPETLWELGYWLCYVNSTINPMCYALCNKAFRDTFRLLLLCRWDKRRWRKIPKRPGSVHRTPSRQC
From the text: Positive allosteric modulation of human muscarinic acetylcholine M1 receptor expressed in CHO-NFAT cells assessed as potentiation of acetylcholine-induced calcium mobilization after 4 hrs by CCF4-AM dye-based assay

[2] = target: T1, Muscarinic acetylcholine receptor M1; test: Positive allosteric modulation of human muscarinic acetylcholine M1 receptor expressed in CHO cells assessed as potentiation of acetylcholine-induced calcium mobilization

EC50 [1]	EC50 [2]	SMILES
794 nM	–	O=C(N[C@H]1CCCC[C@@H]1O)C1CN(Cc2ccc(-n3cccn3)cc2)c2ccccc2O1 (some centres not stated)
–	178 nM	Cn1cc(-c2ccc(CN3CC(C(=O)N[C@H]4CCCC[C@@H]4O)Oc4ccccc43)cn2)cn1 (some centres not stated)

Reference: BindingDB's records for doi:10.1016/j.bmcl.2018.05.009 (Vanderbilt University Medical Center, 2018)
